Read-outs that look alike come from different tables or passages of the source.
Legend:
[1] = Belinostat plasma pharmacokinetics in patients (HPLC-MS/MS, non-compartmental); type: in vivo, human; details: for Cl / Vss / AUC / AUC(0-inf) / Cmax / half-life: mean±s.d.; for AUC / AUC(0-inf) / Cmax / half-life: human, plasma, iv
Procedure: Belinostat and paclitaxel levels were determined in lithium-heparinised plasma using validated solid-phase extraction high performance liquid chromatograpgy (HPLC)-tandem mass spectrometric detection (MS/MS) methods (Covance, Indianapolis, IN, USA). […] Belinostat plasma concentrations were determined at Covance using a validated method involving solid-phase extraction, separation with acetic acid acetonitril gradient on reversed phase C18 silica and MS/MS using penta-deuterated belinostat as the internal standard. […] For all analytes the AUC was estimated from the start of infusion by the logarithmic-linear trapezoidal rule and extrapolated to infinity using the estimated value of the slope of the terminal logarithmic-linear disposition phase.

[2] = system: patients with advanced solid malignancy; details: in vivo
Procedure: Belinostat was administered in escalating doses of 600, 800 and 1000 mg m^−2 per day as a 30-min i.v. infusion on days 1–5 q21. Carboplatin was administered as a 30-min i.v. infusion at area under the curve (AUC) 5 on day 3 q21 days, whereas paclitaxel was administered at 175 mg m^−2 i.v. over 3 h. Cytotoxics were given 2–3 h after the administration of belinostat–paclitaxel followed by carboplatin. […] Carboplatin was dosed in accordance with the Calvert formula using ethylenediaminetetraacetic acid clearance to estimate glomerular filtration rate (GFR) ([Calvert et al, 1989]) at the European Union sites and the Jelliffe formula at sites in the United States ([Jelliffe, 1973]). Prophylactic anti-emetic and hypersensivity prophylaxis for paclitaxel were administered as per local standards.
A DLT was defined as an absolute neutrophil count <0.5 × 10^9 l^−1 lasting for ⩾7 days, or absolute neutrophil count <0.5 × 10^9 l^−1 with sepsis; or platelet count <25 × 10^9 l^−1. In addition, any other drug-related non-haematological grade III or IV toxicity with the exceptions of alopecia, nausea and vomiting, diarrhoea, rash, arthralgias and myalgias was categorized as DLT.
Dose escalation was planned in a classical 3+3 design in up to five cohorts. In cohort 1A, belinostat was to be administered at 600 mg m^−2 together with carboplatin AUC 5; in cohort 1B, […] with paclitaxel 175 mg m^−2. In cohort 2, belinostat at 600 mg m^−2 was to be administered with both carboplatin AUC 5 and paclitaxel at 175 mg m^−2. In cohorts 3 and 4, belinostat was to be administered at 800 and 1000 mg m^−2, respectively, together with the same doses of BelCaP. Treatment cycles were to be repeated until disease progression, evidence of significant treatment-related toxicities, or withdrawal of consent. Up to two dose reductions were to be allowed of all three drugs.
Pre-treatment evaluation included history, physical examination, laboratory assessments, chest x-ray, electrocardiogram (ECG), urinalysis and tumour evaluation with computed tomography (CT) or magnetic resonance imaging (MRI). Laboratory assessments (complete blood count, clotting screen, urea, creatinine, electrolytes, liver function tests, uric acid, glucose and cholesterol) were performed pre-treatment and weekly thereafter as well as on day 4 of cycles 1 and 2 only. Electrocardiograms were performed before and within 1 h after treatment with belinostat in cycle 1 and on day 1 only of all subsequent cycles. Central ECG reading was carried out using a digital analysis method.
Toxicities were graded according to the National Cancer Institute Common Terminology Criteria for Adverse Events version 3.0. Efficacy was assessed by CT or MRI performed every two cycles using Response Evaluation Criteria in Solid Tumors (RECIST) ([Therasse et al, 2000]).

[3] = system: advanced solid malignancy; assay: Anti-tumour activity by CT/MRI (RECIST) in phase I patients; type: in vivo, human; details: for duration of response: confirmed PR
[4] = system: solid and haematological tumours; details: cited from earlier work; for dose-limiting toxicities: 2008
[5] = system: class I and II recombinant HDAC isoforms; set-up: method as in Khan et al, 2008; details: ref Khan et al, 2008; cited from earlier work
[6] = set-up: method as in Qian et al, 2006; details: combined with paclitaxel, docetaxel and carboplatin, in vitro and in vivo; ref Qian et al, 2006; cited from earlier work
[7] = belinostat 600 mg m^−2 i.v., days 1 and 3, 12 patients
[8] = belinostat 800 mg m^−2 i.v., days 1 and 3, 4 patients
[9] = belinostat 1000 mg m^−2 i.v., day 1, 7 patients
[10] = belinostat 1000 mg m^−2 i.v., day 3, 7 patients
[11] = 600 mg, belinostat 600 mg m^−2 i.v., days 1 and 3, 12 patients
[12] = 800 mg, belinostat 800 mg m^−2 i.v., days 1 and 3, 4 patients
[13] = 1000 mg, belinostat 1000 mg m^−2 i.v., day 1, 7 patients
[14] = 1000 mg, belinostat 1000 mg m^−2 i.v., day 3, 7 patients
[15] = eight patients with best response s.d.

O=C(/C=C/c1cccc(S(=O)(=O)Nc2ccccc2)c1)NO [belinostat]
accumulation with repeat dosing ([1]; 1000 mg m^−2 per day, day 3 pre-infusion): no accumulation | Cl [1, 7]: 69.7±15.2 l h^−1 m^−2 | Vss [1, 7]: 34.9±6.4 l m^−2 | Cl [1, 8]: 73.7±14.1 l h^−1 m^−2 | Vss [1, 8]: 38.1±9.7 l m^−2 | Cl [1, 9]: 41.1±22.2 l h^−1 m^−2 | Vss [1, 9]: 22.6±9.7 l m^−2 | Cl [1, 10]: 45.1±17.3 l h^−1 m^−2 | Vss [1, 10]: 35.8±17.3 l m^−2 | patients with pre-infusion plasma value on day 3 below the limit of quantitation ([1]; belinostat 1000 mg m^−2 per day, limit of quantitation 5 ng ml^−1): five of seven | effect of concurrent administration on pharmacokinetics ([1]; belinostat with carboplatin and/or paclitaxel on day 3): unaltered | dose proportionality of pharmacokinetics ([1]; dose range 600–1000 mg m^−2): dose proportional | AUC [1, 11]: 28.4 ± 7.1 µM·h | AUC(0-inf) [1, 11]: 28.4 ± 7.1 µM·h | Cmax [1, 11]: 58.5 ± 13.8 µM | half-life [1, 11]: 1.7 ± 0.9 h | AUC [1, 12]: 35.5 ± 8.7 µM·h | AUC(0-inf) [1, 12]: 35.6 ± 8.7 µM·h | Cmax [1, 12]: 70.8 ± 18.9 µM | half-life [1, 12]: 1.7 ± 0.2 h | AUC [1, 13]: 102 ± 58.2 µM·h | AUC(0-inf) [1, 13]: 102 ± 58.3 µM·h | Cmax [1, 13]: 128 ± 43.5 µM | half-life [1, 13]: 1 ± 0.1 h | AUC [1, 14]: 88.8 ± 63.9 µM·h | AUC(0-inf) [1, 14]: 88.8 ± 63.9 µM·h | Cmax [1, 14]: 135 ± 54.9 µM | half-life [1, 14]: 2.7 ± 0.4 h | Alopecia grade 3, treatment related AE ([2]; human): 0 | Arthralgia grade 3, treatment related AE ([2]; human): 0 | Flushing grade 3, treatment related AE ([2]; human): 0 | Nausea grade 3, treatment related AE ([2]; human): 0 | Neutropenia grade 4, treatment related AE ([2]; human): 13% | maximal administered dose of belinostat ([2]; human): 1000 mg m^−2 per day | recommended dose of belinostat ([2]; human, iv): 1000 mg m^−2 per day | cardiac toxicity [2]: no cardiac toxicity | grade IV non-haematological adverse events [2]: no grade IV non-haematological adverse events | patients with best response of s.d. ([3]; 14 patients evaluable): eight | patients with stable disease lasting ⩾6 months ([3]; belinostat with carboplatin and/or paclitaxel): six and seven | partial responses (number of patients) ([3]; belinostat with carboplatin and/or paclitaxel, 14 patients evaluable, RECIST): two | duration of response ([3]; patient with metastatic pancreatic cancer treated with belinostat and carboplatin): 7 months | duration of response ([3]; patient with metastatic rectal cancer treated with belinostat, carboplatin and paclitaxel): 9 months | duration of s.d., median [3, 15]: 6.6 months | duration of s.d., range [3, 15]: 1–29 months | CA-125 response ([3]; one patient, mixed mullerian tumour of ovarian origin, radiologically s.d. by RECIST): complete CA-125 response | duration of s.d., range ([3]; seven patients with s.d. lasting ⩾6 months): 6–29 months | response in patient with metastatic transitional cell cancer of the bladder ([3]; treated with belinostat and paclitaxel, otherwise rated s.d.): resolution of a bony metastatic deposit | myelosuppression ([4]; single agent phase I studies, ref Steele et al, 2008, Gimsing et al): no significant myelosuppression | maximum tolerated dose (MTD) ([4]; single agent, i.v., q21 days, ref Steele et al, 2008, Gimsing et al): 1000 mg m^−2 per day | dose-limiting toxicities ([4]; single agent, solid tumour study, ref Steele et al): fatigue, diarrhoea and atrial fibrillation | dose-limiting toxicities ([4]; single agent, study of haematological tumours, ref Gimsing et al): none were seen | activity against HDAC isoforms [5]: nanomolar activity | combination effect [6]: additive to synergistic
